Assay results from PMC10835127, “Viruses traverse the human proteome through peptide interfaces that can be biomimetically leveraged for drug discovery” (Proceedings of the National Academy of Sciences of the …, 2024).
Read-outs that look alike come from different tables or passages of the source.

What was measured:
HIV1 strain NL4-3 = format: cell-based; conditions: normalized mean of HIV1 replication readout
HCV replicon = format: cell-based; conditions: normalized mean of HCV replicon readout
[1] = test system: F. novicida (strain U112); format: cell-based
influenza A H1N1 virus = conditions: 48 hr post-treatment, A549
EBV = conditions: normalized mean of EBV replication readout

Row | Substance | HIV1 Norm MEAN (HIV1 strain NL4-3) | HCV Norm MEAN (HCV replicon) | Francisella novicida Norm AUC [1] | Neuraminidase activity normalized to vehicle (influenza A H1N1 virus; 200 µM peptide) | Neuraminidase activity normalized to vehicle (influenza A H1N1 virus; 0,823 µM peptide) | Neuraminidase activity normalized to vehicle (influenza A H1N1 virus; 22,2 µM peptide) | Neuraminidase activity normalized to vehicle (influenza A H1N1 virus; 2,4691 µM peptide) | Neuraminidase activity normalized to vehicle (influenza A H1N1 virus; 7,4074 µM peptide) | Neuraminidase activity normalized to vehicle (influenza A H1N1 virus; 66,6667 µM peptide) | EBV Norm MEAN (EBV) | HIV1 Norm MEAN (HIV1 strain NL4-3; peptide screen) | HCV Norm MEAN (HCV replicon; peptide screen) | EBV Norm MEAN (EBV; peptide screen) | inhibition of PI incorporation in F. novicida infected BMDMs (in words) [1]
1 | EPLDLPPIIQ [CPEP45] | 0.3392 | 1.078 | 1.0611 | 0,7336 | 0,9966 | 0,8381 | 0,9443 | 0,9188 | 0,7574 | 0.6832 |  |  |  | 
2 | CPEP153: peptide of the viral peptide library; sequence page not shown (GRKKRRQRRR) | 0.7984 | 0.3202 | 0.6851 | 0,9878 | 1,0171 | 1,0832 | 1,0648 | 1,0014 | 1,1029 | 2.382 |  |  |  | 
3 | TYGTC [CPEP97] | 0.8497 | 0.1345 | 0.4338 | 0,8478 | 0,83 | 0,836 | 0,6842 | 0,8009 | 0,8711 | 1.147 |  |  |  | 
4 | GRPPLPPKQK [CPEP41] | 0.6258 | 0.9259 | 0.9976 | 0,8561 | 1,0727 | 0,912 | 0,9209 | 0,9892 | 0,8347 | 0.7591 |  |  |  | 
5 | GHRMAWDMMMNWSP [CPEP107] |  |  | 0.9779 | 0,108 | 0,7424 | 0,9099 | 0,9047 | 0,8224 | 0,2891 |  | 1.4249 | 0.9584 | 0.9961 | 
6 | NKVGSLQYLALAALI [CPEP60] |  |  | 1.045 | 0,117 | 0,8991 | 0,7636 | 1,0157 | 0,7801 | 0,247 |  | 4.7165 | 1.268 | 0.706 | 
7 | TGGER [CPEP30] | 1.255 | 0.2042 | 0.8411 | 0,9647 | 0,957 | 0,923 | 0,8714 | 0,8974 | 0,9486 | 0.8583 |  |  |  | 
8 | RHIICHGGVI [CPEP133] | 7.136 | 0.3927 | 0.5145 | 0,0947 | 0,951 | 0,4954 | 0,9186 | 0,811 | 0,1797 | 1.143 |  |  |  | 
9 | DLYCYEQLNDSSEEEDE [CPEP125] |  |  | 1.158 | 0,7813 | 1,0772 | 1,1403 | 0,9577 | 1,1015 | 0,8979 |  | 1.6 | 0.9031 | 1.019 | 
10 | RPEPTAPPEE [CPEP116] | 0.3699 | 1.054 | 0.6494 | 0,7624 | 0,9564 | 0,683 | 0,8677 | 0,7015 | 0,6644 | 0.4152 |  |  |  | 
11 | MAGRSGDSDEELIR [CPEP91] |  |  | 1.031 | 0,8049 | 0,8065 | 0,8658 | 0,8956 | 0,8592 | 0,8689 |  | 0.2767 | 0.7752 | 0.5729 | 
12 | WKSKKTP [CPEP78] | 1.618 | 0.1248 | 0.7597 | 0,663 | 0,9859 | 0,8841 | 0,8283 | 0,8644 | 0,9037 | 1.01 |  |  |  | 
13 | PVHAGPIAP [CPEP87] | 0.4 | 0.2137 | 1.084 | 0,6355 | 1,0155 | 0,8043 | 0,8845 | 0,906 | 0,7025 | 0.6567 |  |  |  | 
14 | GGKWSKLS [CPEP134] | 1.139 | 0.2388 | 1.142 | 0,426 | 0,9416 | 0,8116 | 0,8887 | 0,9196 | 0,7036 | 0.3842 |  |  |  | 
15 | PVQES [CPEP44] | 2.9976 | 0.1889 | 0.7515 | 0,8825 | 0,8116 | 0,9052 | 0,843 | 0,7952 | 1,0152 | 1.192 |  |  |  | 
16 | TIESEV [CPEP59] | 0.5804 | 0.1611 | 0.4462 | 1,1965 | 1,1044 | 1,0974 | 1,0801 | 1,0995 | 1,0953 | 1.967 |  |  |  | one of the most potent virus-derived peptides to inhibit PI incorporation
